From patent publication US5994361A, “Substituted purinyl derivatives with immunomodulating activity” (priority 1995, dated 1999)
Where two headings read alike, the source gives them in different places.

Experiments:
[1] = system: cytotoxic T lymphocytes, P815 target cells; experiment: Cytotoxic T lymphocytes (CTL) assay; type: cell-based, C57B1/6 mice and DBA/2 mice; details: for activation at 0.1 µM / activation at 10 µM / activation at 0.001 µM: Mus musculus, P815, 120 h, read-out: CTL activity, % increase compared to IL2 (100%); for activation at 10 µM: at 10^-5 M; for activation at 0.001 µM: at 10^-9 M
Procedure: (§1) Mixed lymphocyte reaction is an in vitro counterpart of the allograft rejection. Briefly, T cell response was obtained when cells taken from two inbred strains from two outbred individuals of any species were mixed in vitro in culture.
(§2) After 4 days incubation, ^3 H thymidine uptake and cytotoxicity assay (CTL) were performed.
(§3) 3 C57B1/6 mice and 3 DBA/2 mice wre killed and lymphocytes prepared using lympholyte M. The cell concentration was adjusted to 10×10^6 cell/ml for each lysis. DBA/2 cells were irradiated with 3000 Rads. 1 ml of the C57 cells+1 ml of the DBA/2 cells+1 ml of the drug at 3 different concentrations were incubated together for 5 days. Positive control was IL-2 at 15 ng/ml final. After 5 days, the CTL and MLR tests were carried out.
P815 target cells were labelled with Cr^51. After labelling, the cells were resuspended to 5×10^4 cells/ml.
100 μl of target cells+100 μl Of T cells were incubated for 4 hrs and then 100 μl of supernatant was counted using a gamma counter.

[2] = system: T cell response (mixed lymphocyte reaction); experiment: Mixed lymphocyte reaction (MLR) assay; type: cell-based, C57B1/6 mice and DBA/2 mice
Procedure: as §1, §2, §3
The cells were resuspended and 100 μl of cell suspension were deposited in each of the 96 wells in the plate, 50 μl of Thymidine at 20 μCi/ml was added for 6 hrs. The cells were then collected and counted using a beta counter.

[3] = system: T cell activity (ConA), spleen mononuclear leukocytes; experiment: Mitogenic proliferation on spleen cell suspension, T (ConA); type: cell-based, C57BL-6 mice
Excerpt: (§4) Mitogenic lectin (mitogen) is a protein which binds and cross-links specific cells surface carbohydrate determinants, and will polyclonally stimulate lymphoid cells. Lymphocyte activation by either antigens or mitogens results in intracellular changes and the subsequent development into a lymphoblast. Mitogenic stimulation of lymphocytes in vitro is believed to mimic the series of events which occur in vivo following their stimulation by specific antigens. PHA, ConA, and PWM, LPS mitogens can be used as a measurement of T cell and B cell activity, respectively.
(§5) Briefly, spleen mononuclear leukocytes from C57BL-6 mice were incubated in the presence or absence of mitogens with or without tested drugs. After 72 hours or 5 days, ^3 H thymidine incorporation was recorded as an indication of cell transformation and proliferation.
(§6) 100 μl of a suspension of 2×10^6 cells/ml (2×10^5 cells/well) were incubated in presence of PHA or ConA or PWM or LPS at the following concentrations:
(§7) PHA=0.01% final concentration-0.001%
(§8) Cells were incubated in presence or absence of drugs for 72 hours. 0.5 or 1 μCi of tritiated thymidine (^3 H) was added per well the last 18 or 6 hours of incubation respectively. Cells were harvested and counted on a Beta counter.

[4] = system: B cell activity (LPS), spleen mononuclear leukocytes; experiment: Mitogenic proliferation on spleen cell suspension, B (LPS); type: cell-based, C57BL-6 mice
Excerpt: as §4, §5, §6, §7, §8

[5] = prior art; cited from earlier work
immune system = details: prior art; cited from earlier work
[6] = at 10^-12 - 10^-6 (M), 4320 min

Compound: COc1ncnc2c1ncn2CCCCCO [Compound #51, N-(6-methoxypurin-9-yl) 5-pentanol]
- activation at 0.1 µM ([1]; at 10^-7 M): 40 to 60%
- MLR ([2]; at 10^-9 - 10^-6 M, 7200 min): 1.5 - 2 ×

Compound: N=C(N)NCCC[C@@H](NC(=O)OCCCCCn1cnc2c(Cl)ncnc21)C(=O)O [Compound #9, Chloropurinyl Pentoxycarbonyl D-Arginine]
- T (ConA) mitogenic proliferation [3, 6]: 2 - 3.5 ×

Compound: CN(C)c1ncnc2c1ncn2CCCCCOC(=O)N[C@@H](CCCNC(=N)N)C(=O)O [Compound #2, N,N-Dimethylaminopurinyl Pentoxycarbonyl L-Arginine]
- CTL activity, % increase compared to IL2 (100%) ([1]; concentration not given): 0 (less than 20%)
- MLR ([2]; at 10^-7 - 10^-5 M): 1.5 - 2 ×
- T (ConA) mitogenic proliferation ([3]; at 10^-8 - 10^-5 (M), 4320 min): 2 - 4 ×
- B (LPS) mitogenic proliferation ([4]; concentration not given): 0

Compound: CNc1ncnc2c1ncn2CCCCCOC(=O)N[C@H](CCCNC(=N)N)C(=O)O [Compound #3, N-Monomethylaminopurinyl Pentoxycarbonyl D-Arginine]
- activation at 10 µM [1]: 20 to 40%
- MLR ([2]; at 10^-9 - 10^-5 M): 1.5 ×
- T (ConA) mitogenic proliferation [3, 6]: 2 - 6 ×
- B (LPS) mitogenic proliferation ([4]; at 10^-8 - 10^-6 (M), 4320 min): 2 - 2.5 ×

Compound: OCCCCCn1cnc2c(Cl)ncnc21 [Compound #III, N-(6-Chloropurin-9-yl)-5-pentanol]
- activation at 0.1 µM ([1]; at 10^-7 M): 60 to 80%
- MLR ([2]; at 10^-9 - 10^-5 M): 1.5 - 2.5 ×

Compound: isoprinosine
- toxicity [5]: very nontoxic
- immunomodulating activity (immune system): not an effective immunomodulator

Compound: Oc1ncnc2[nH]ncc12 [allopurinol]
- immunomodulating activity (immune system): immunosuppressive

Compound: N=C(N)NCCC[C@@H](NC(=O)OCCCCCn1cnc2c(=O)[nH]cnc21)C(=O)O [Compound #11, Hydroxypurinyl Pentoxycarbonyl D-Arginine]
- activation at 0.1 µM ([1]; at 10^-7 M): 40 to 60%
- MLR ([2]; at 10^-7 - 10^-5 M): 2 - 2.5 ×

Compound: CNc1ncnc2c1ncn2CCCCCO [Compound #3a, N-(6-N-Methyl-Aminopurin-9-yl)-pentanol]
- CTL activity, % increase compared to IL2 (100%) ([1]; at 10^-9 - 10^-7 M): +++ (60-80%)
- MLR ([2]; at 10^-9 - 10^-5 M): 1.5 - 2.9 ×

Compound: N=C(N)NCCC[C@@H](NC(=O)OCCCCCn1cnc2c(NN)ncnc21)C(=O)O [Compound #7, Hydrazinopurinyl Pentoxycarbonyl D-Arginine]
- activation at 0.001 µM [1]: 60 to 80%
- MLR ([2]; at 10^-9 - 10^-6 M, 7200 min): 1.5 - 2 ×
- T (ConA) mitogenic proliferation ([3]; at 10^-12 - 10^-8 (M), 4320 min): 2 - 6 ×
- B (LPS) mitogenic proliferation ([4]; concentration not given): 0

Compound: N=C(N)NCCC[C@@H](NC(=O)OCCCCCn1cnc2c(N)ncnc21)C(=O)O [Compound #5, Aminopurinyl Pentoxycarbonyl D-Arginine]
- activation at 0.1 µM ([1]; at 10^-7 M): 20 to 40%
- MLR ([2]; at 10^-7 - 10^-5 M): 1.5 - 2 ×

Compound: Nc1ncnc2c1ncn2CCCCCO [Compound #5a, N-(6-Aminopurin-9-Yl) 5-Pentanol]
- CTL activity, % increase compared to IL2 (100%) ([1]; at 10^-7 - 10^-5 M): ++ (40-60%)
- MLR ([2]; at 10^-9 - 10^-6 M, 7200 min): 1.5 - 2 ×

Compound: CN(C)c1ncnc2c1ncn2CCCCCO [Compound #V, N-(6-N,N-Dimethylaminopurin-9-yl)-pentanol]
- activation at 0.1 µM ([1]; at 10^-7 M): 60 to 80%
- MLR ([2]; at 10^7 - 10^5 M (so in the source)): 1.5 - 2 ×

Compound: CSc1ncnc2c1ncn2CCCCCO [Compound #60, N-(6,-N-Methylthiopurin-9-yl)-pentanol]
- activation at 0.1 µM ([1]; at 10^-7 M): 20 to 40%
- MLR ([2]; at 10^-9 - 10^-5 M): 1.7 - 2 ×

Compound: NNc1ncnc2c1ncn2CCCCCO [Compound #7a, N-(6-Hydrazinopurin-9-yl) 5-Pentanol]
- activation at 0.001 µM ([1]; preliminary result): > 80%
- MLR ([2]; at 10^-9 - 10^-5 M, preliminary result): 2 ×

Compound: OCCCCCn1cnc2cncnc21 [Compound #19, N-9-purinyl-5-pentanol]
- activation at 0.1 µM ([1]; at 10^-7 M, preliminary result): 40 to 60%
- MLR ([2]; concentration not given, preliminary result): 0

Compound: N=C(N)NCCC[C@H](NC(=O)OCCCCCn1cnc2c(NN)ncnc21)C(=O)O [Compound #8, Hydrazinopurinyl Pentoxycarbonyl L-Arginine]
- activation at 0.001 µM [1]: > 80%
- MLR ([2]; at 10^-9 - 10^-5 M): 1.5 - 2 ×

Compound: N=C(N)NCCC[C@H](NC(=O)OCCCCCn1cnc2c(N)ncnc21)C(=O)O [Compound #6, Aminopurinyl Pentoxycarbonyl L-Arginine]
- activation at 0.001 µM [1]: 60 to 80%
- MLR ([2]; at 10^-9 - 10^-5 M): 1.5 - 3 ×

Compound: N=C(N)NCCC[C@@H](NC(=O)OCCCCCn1cnc2cncnc21)C(=O)O [Compound #20, N-9-purinyl-7-pentyloxycarbonyl-D-arginine]
- activation at 10 µM [1]: 40 to 60%

Compound: N=C(N)NCCC[C@H](NC(=O)OCCCCCn1cnc2c(=O)[nH]cnc21)C(=O)O [ST 789, reference compound]
- activation at 0.1 µM ([1]; at 10^-7 M): 40 to 60%
- MLR ([2]; at 10^-9 - 10^-5 M): 2 - 3 ×
- stimulation of cytotoxic T lymphocytes (CD8+ T cells) (immune system): no indication
- T (ConA) mitogenic proliferation ([3]; concentration not given): 0
- B (LPS) mitogenic proliferation ([4]; at 10^-8 - 10^-5 (M), 4320 min): 1.5 - 3 ×

Compound: O=c1[nH]cnc2c1cnn2CCCCCO [ST 689, allopurinol pentanol, reference compound]
- CTL activity, % increase compared to IL2 (100%) ([1]; at 10^-7 M, preliminary result): ++++ (80+)
- MLR ([2]; at 10^-5 M, preliminary result, 10 µM): 1.6 ×
- immunomodulating activity (immune system): not significantly more immunostimulatory than ST 789

Compound: OCCCCCn1cnc2c(S)ncnc21 [Compound #59, N-(6-Mercaptopurin-9-yl)-pentanol]
- activation at 0.001 µM [1]: 40 to 60%
- MLR ([2]; at 10^-9 - 10^-5 M): 2 - 2.4 ×
